We go through four molecules from ChEMBL document CHEMBL2203270, “POMA analyses as new efficient bioinformatics' platform to predict and optimise bioactivity of synthesized 3a,4-dihydro-3H-indeno[1,2-c]pyrazole-2-carboxamide/carbothioamide analogues” (Bioorg Med Chem Lett, 2012).

SMILES strings stand for the structures. Converted amounts (≈) assume the structure as drawn. The source made the active and inactive calls.

Series [1] has as its system Staphylococcus aureus. Kind of series: microbe, parasite or virus in culture. The following applies: NCIM 2079.
Description: Antimicrobial activity against Staphylococcus aureus NCIM 2079 by disc-diffusion method
In series [2] the test system is Escherichia coli. Description: microbe, parasite or virus in culture. To be noted: NCIM 5051.
Description: Antimicrobial activity against Escherichia coli NCIM 5051 by disc-diffusion method
Series [3] deals with Bacillus subtilis. Kind of series: Antimicrobial activity against Bacillus subtilis NCIM 2439 by disc-diffusion method. Format: functional. Background: Agar diffusion results depend on both activity and mobility in agar.
In series [4] the test system is Pseudomonas aeruginosa. Description: microbe, parasite or virus in culture. The following applies: ATCC 10145.
Series [5] has as its system Human immunodeficiency virus 2. Description: Antiviral activity against HIV-2 ROD infected in MT4 cells assessed as protection against virus-induced cytopathicity relative to control. Format: functional. The following applies: Human immunodeficiency virus 2, ISOLATE ROD. In general terms: Damage to the host cells serves as the signal in cytopathic effect assays.
Series [6] concerns Mus musculus. Kind of series: Neurotoxicity in mouse assessed as minimal motor impairment at 100 mg/kg, ip measured at 0.5 hr by rotarod test. Type of series: toxicity, organism-based. More on the design: dose 100 mg/kg, route intraperitoneal. The following applies: in vivo. On the technique in general: In the rotarod test animals must keep their balance on a rotating rod.
Series [7] has as its system Mus musculus. Description: Neurotoxicity in mouse assessed as minimal motor impairment at 100 mg/kg, ip measured at 4 hr by rotarod test. Format: toxicity, organism-based. More on the design: dose 100 mg/kg, route intraperitoneal. To be noted: in vivo.
Series [8] is described as follows: Cytotoxicity against mock-infected human MT4 cells assessed as decrease in cell viability by MTT assay. Type of series: cell-based.
Series [9] relates to Mus musculus. Kind of series: Anticonvulsant activity in mouse assessed as protection against clonic seizure at 100 mg/kg, ip measured at 4 hr. Type of series: functional, organism-based. The arrangement: dose 100 mg/kg.
Series [10] relates to Mus musculus. Kind of series: Anticonvulsant activity in mouse assessed as protection against clonic seizure at 100 mg/kg, ip measured at 1 hr. Type of series: functional.
The test system of series [11] is Human immunodeficiency virus 2. Kind of series: Antiviral activity against HIV-2 ROD infected in MT4 cells assessed as inhibition of virus-induced cytopathicity. Format: functional, organism-based. To be noted: Human immunodeficiency virus 2, ISOLATE ROD.
Series [12] deals with Mus musculus. Description: Anticonvulsant activity in mouse assessed as protection against clonic seizure at 100 mg/kg, ip measured at 2 hr. Format: functional, organism-based. The arrangement: dose 100 mg/kg.
Series [13] deals with Mus musculus. Description: Anticonvulsant activity in mouse assessed as protection against clonic seizure at 100 mg/kg, ip measured at 0.5 hr. Format: functional.
Series [14] has as its system Human immunodeficiency virus 1. Description: Antiviral activity against HIV-1 3B infected in MT4 cells assessed as inhibition of virus-induced cytopathicity. The following applies: Human immunodeficiency virus 1, 3B. Type of series: functional, organism-based.
The test system of series [15] is Human immunodeficiency virus 1. Description: Antiviral activity against HIV-1 3B infected in MT4 cells assessed as protection against virus-induced cytopathicity relative to control. Type of series: functional. The following applies: Human immunodeficiency virus 1, 3B.
Series [16] concerns Mus musculus. Kind of series: Neurotoxicity in mouse assessed as minimal motor impairment at 100 mg/kg, ip measured at 0.25 hr by rotarod test. To be noted: in vivo. More on the design: dose 100 mg/kg, route intraperitoneal. Type of series: toxicity, organism-based.
The test system of series [17] is Mus musculus. Description: Neurotoxicity in mouse assessed as minimal motor impairment at 100 mg/kg, ip measured at 1 hr by rotarod test. Type of series: toxicity, organism-based. More on the design: dose 100 mg/kg, route intraperitoneal. To be noted: in vivo.
Series [18] deals with Mus musculus. Description: Anticonvulsant activity in mouse assessed as protection against clonic seizure at 100 mg/kg, ip measured at 0.25 hr. Type of series: functional.
Series [19] concerns Mus musculus. Kind of series: Neurotoxicity in mouse assessed as minimal motor impairment at 100 mg/kg, ip measured at 2 hr by rotarod test. Type of series: toxicity, organism-based. More on the design: dose 100 mg/kg, route intraperitoneal. To be noted: in vivo.
The test system of series [20] is Candida albicans. Description: Antimicrobial activity against Candida albicans NCIM 3471 by agar diffusion method. Format: functional.
The subject of series [21] is Aspergillus niger. Kind of series: Antimicrobial activity against Aspergillus niger NCIM 1196 by agar diffusion method. Format: functional.

As for `O=C(O)c1cn(C2CC2)c2cc(N3CCNCC3)c(F)cc2c1=O` [CIPROFLOXACIN], the MBC turned out to be 8 µg/mL (≈ 24.1 µM) in series [1], 4 µg/mL (≈ 12.1 µM) in [2], 8 µg/mL (≈ 24.1 µM) in series [3] and 8 µg/mL (≈ 24.1 µM) in series [4]. Besides, the MIC in series [1], in series [3] and in [4] was 4 µg/mL (≈ 12.1 µM) in each case.

For the molecule `COc1cc2c(cc1OC)C1=NN(C(=O)Nc3ccc(F)c(Cl)c3)C(c3ccccc3)C1C2` (stereo unspecified), the Emax in [5] stood at 10%; in series [15], 7%. In addition, the Activity result in [6] is recorded as “Non-toxic”; in [7] it was “Non-toxic”; in [16] it was “Non-toxic”; in series [17], “Non-toxic”; in series [18] (route intraperitoneal), 50%; in series [19], “Non-toxic”. Besides, the CC50 in [8] amounted to 35.8 µM. Besides, the outcome in series [9], in series [10], in [12] and in series [13] was inactive. Also, the IC50 in series [11] and in series [14] was greater than 35.8 µM in each case.

For `COc1cc2c(cc1OC)C1=NN(C(=O)Nc3ccc(F)c(Cl)c3)C(c3ccc(F)cc3)C1C2` (stereo unspecified), the Emax came out at 7% in series [5] and 2% in series [15]. The Activity entry in series [6], in series [7], in [16], in series [17] and in [19] was “Non-toxic” throughout. Besides, the CC50 in [8] was determined as 179 µM. Besides, the result in [9], in [10], in series [12], in [13] and in series [18] was inactive. In addition, the half-maximal inhibitory concentration (IC50) in series [11] and in series [14] was greater than 179 µM in each case.

On to `OC(Cn1cncn1)(Cn1cncn1)c1ccc(F)cc1F` [FLUCONAZOLE], for which, in [20], the MFC was 2 µg/mL (≈ 6.53 µM) and the MIC was found to be 1 µg/mL (≈ 3.27 µM). Moreover, in series [21], the MFC came to 2 µg/mL (≈ 6.53 µM) and the MIC amounted to 2 µg/mL (≈ 6.53 µM).

Usually Emax stands for the maximal effect, on the per cent scale that the assay sets. For orientation: CC50 means the concentration at which the toxic effect on the cells reaches its halfway point. One may read the IC50 as the concentration at which inhibition is half-maximal. By MFC is commonly meant the smallest concentration meeting the test's criterion for killing the fungus. A low value points to greater fungicidal potency.
